# Laboratory results published in patent US20160000762A1, “IMPROVING COGNITIVE FUNCTION” (THE REGENTS OF THE UNIVERSITY OF CALIFORNIA, priority 2013, published 2016).
# Assays:
# [1] = tested on: primary hippocampal neurons; assay: Synaptic marker immunostaining, primary hippocampal neurons; type: cell-based, Sprague-Dawley rats; conditions: 5 μM, 24 h
# Experimental: Primary neuron culture and immunostaining. Primary hippocampal neurons from E19 Sprague-Dawley rats were cultured at 150 cells/mm^2 as previously described (Pak et al., 2001). Neurons were transfected using Lipofectamine™ 2000 (Invitrogen, Carlsbad, Calif., USA) or calcium phosphate precipitation with GFP+PLL, GFP+APP shRNA, or GFP+APP and treated with BTA-EG4. The following antibodies were used: mouse anti-GFP (Novus Biologicals, 9F9.F9), rabbit anti-GFP (Invitrogen, A11122), rabbit anti-GluR1 (Calbiochem, PC246), mouse anti-GluR2 (BD Pharmagen, 556341), mouse anti-postsynaptic density (PSD)-95 (NeuroMabs, Davis, Calif., USA), mouse anti-Synaptophysin (Sigma Aldrich, s5768), rabbit APP N-terminal (Sigma-Aldrich, A8967), anti-Ras (BD Biosciences, 610001), anti-RasGRF1 (Santa Cruz, C-20; BD Biosciences, 610149), anti-ERK1/2 (Cell Signaling, 4695), anti-p-ERK1/2 (Invitrogen, 36880), anti-CREB (Cell Signaling, D76D11), anti-p-CREB (Millipore, 06-519), and mouse anti-c-Myc (Novus Biologicals, 9E10). Cultured hippocampal neuron images were acquired by LSM 510 laser scanning confocal microscope (Zeiss). Confocal zseries image stacks encompassing entire dendrite segments were analyzed using MetaMorph software (Universal Imaging Corporation, Downington, Pa., USA). […]
# Ras = assay: GST-Raf1-RBD pulldown of active Ras, brain lysates of wild-type mice; type: in vivo; conditions: 30 mg/kg daily for 2 weeks
# Experimental: GST-pull-down assay. To measure levels of active Ras, brain lysate homogenized with Ral buffer (25 mM Tris-HCl, pH 7.4, 250 mM NaCl, 0.5% NP40, 1.25 mM MgCl2, and 5% glycerol) from APP transgenic, APP knockout, or wild-type mice was incubated with GST-Raf-RBD purified protein coupled with GLUTATHIONE SEPHAROSE™ (Amersham) overnight at 4° C. After 24 hours, pellets were washed with Ral buffer and western blotting was conducted with anti-Ras.
# We next investigated the molecular mechanism by which BTA-EG4 may alter dendritic spine formation. Ras, a small GTPase, is involved in dendritic spine formation and synaptic delivery of AMPA receptors (Zhu et al., 2002; Lee et al., 2011). Moreover, abnormal Ras signaling is associated with neurodegenerative disease, causing cognitive impairments and learning deficits (Stornetta and Zhu, 2011). Thus, we initially investigated the effect of BTA-EG4 on Ras signaling by treating primary hippocampal neurons with BTA-EG4 (5 μM) or control for 24 hrs. […] Further, levels of active Ras were elevated following BTA-EG4 treatment (5 μM) in primary cortical neurons (FIG. 7C) and following BTA-EG4 treatment (30 mg/kg) in wild-type mice (FIG. 7D). We also examined whether BTA-EG4 can alter the activity of downstream Ras signaling proteins, including p-ERK and p-CREB.
# [2] = Fear conditioning, wild-type mice; type: in vivo; conditions: 30 mg/kg daily for 2 weeks
# Experimental: Fear conditioning. Before initiating fear-conditioning tests, wild-type mice were injected daily with BTA-EG4 or vehicle for 2 weeks (n=8/group). Mice were subsequently trained by exposure to a conditioning box (context) for 3 min before administering a tone (18 s) and footshock (2 s), which were repeated twice at 1 min intervals. We performed the contextual test 24 h after training by re-exposing the mice to the conditioning context. A measurement of freezing behavior was recorded every minute for 3 min inside of the conditioning box. The cued test was conducted 3 h following the contextual test. Following a 3 min reexposure to the conditioning box, a tone (18 s) was administered and freezing behavior was measured for 1 min.
substance,measurement,setting,value
BTA-EG4,number of puncta stained for PSD-95,[1],increased
same,number of puncta stained for synaptophysin,[1],increased
same,levels of active Ras,Ras,elevated
same,"freezing, contextual test",[2],significantly increased
same,"freezing, cued test",[2],significantly increased
